Measured values taken from patent publication US20190177421A1, “CHIMERIC ANTIGEN RECEPTORS AND METHODS FOR USE” (Poseida Therapeutics, Inc., priority 2016, published 2019).
Where two headings read alike, the source gives them in different places.

Tests used:
human primary T cells = assay: In vitro CARTyrin surface expression in T cells; type: cell-based; settings: following lentiviral transduction of human primary T cells
Source text: Characterization further assays correlations with functionality.

tumor = assay: In vivo tumor challenge study in mice
Source text: FIG. 6 is a schematic diagram depicting an in vivo tumor challenge study timeline using the A08 CARTyrin in mice.
FIG. 6 depicts the treatment schedule for an in vivo study in mice using the A08 CARTyrin. […] FIG. 8 provides a series of photographs further illustrating tumor burden in control animal as well as those treated with P-BCMA-101.

[1] = test system: human pan T-cells containing the iC9 construct; assay: iC9 safety switch test: viability by flow cytometry using 7-AAD; type: cell-based; settings: 24 hours incubation, 0-1000 nM tested, cells with iC9 safety switch
Source text: Human pan T-cells were nucleofected using an Amaxa 4D nucleofector with one of four piggyBac transposons. Modified T cells receiving the “mock” condition were nucleofected with an empty piggyBac transposon. Modified T cells received either a piggyBac transposon containing a therapeutic agent alone (a sequence encoding a CARTyrin) or a piggyBac transposon containing an integrated iC9 sequence and a therapeutic agent (a sequence encoding a CARTyrin).
To test the iC9 safety switch, each of the four modified T cells were incubated for 24 hours with 0, 0.1 nM, 1 nM, 10 nM, 100 nM or 1000 nM AP1903 (an induction agent for […]). Viability was assessed by flow cytometry using 7-aminoactinomycin D (7-AAD), a fluorescent intercalator, as a marker for cells undergoing apoptosis.

cells [2] = assay: Amount of AP1903 needed in vitro for effective signaling of cells; type: cell-based; settings: calculated with 1600 Da MW
Protocol: The fixed dose of AP1903 for injection used, for example, may be 0.4 mg/kg intravenously infused over 2 hours. The amount of AP1903 needed in vitro for effective signaling of cells is 10-100 nM (1600 Da MW). This equates to 16-160 μg/L or 0.016-1.6 μg/kg (1.6-160 μg/kg). Doses up to 1 mg/kg were well-tolerated in the Phase I study of AP1903 described above. Therefore, 0.4 mg/kg may be a safe and effective dose of AP1903 for this Phase I study in combination with the therapeutic cells.

cells [3] = settings: cited from earlier work
[4] = cited from earlier work

Protocol for BCMA+ tumor cells: Functionality of CARTyrin-expressing T cells was measured by degranulation against tumor lines.

For “A08 CARTyrin: anti-BCMA CARTyrin (CAR comprising a Centyrin), SEQ ID NO: 21; P-BCMA-101 encodes the A08 anti-BCMA CARTyrin”, the surface expression (human primary T cells) was “high levels of surface expression”, the “cytotoxic function (e.g. proliferation)” value (BCMA+ tumor cells) was “strong cytotoxic function” and the “tumor burden assessed by M-protein abundance” value (tumor; day 21) was “no detectable M-protein”. For the same molecule, the “tumor burden assessed by M-protein abundance” value (tumor; day 21, listed as P-BCMA-101) was “not detectable”, the “tumor burden compared to controls” value (tumor; photographs) was “reduce tumor burden” and the survival (tumor; to day 21) was 100%.

For CC[C@H](C(=O)N1CCCC[C@H]1C(=O)O[C@H](CCc1ccc(OC)c(OC)c1)c1cccc(OCC(=O)NCCNC(=O)COc2cccc([C@@H](CCc3ccc(OC)c(OC)c3)OC(=O)[C@@H]3CCCCN3C(=O)[C@@H](CC)c3cc(OC)c(OC)c(OC)c3)c2)c1)c1cc(OC)c(OC)c(OC)c1 (relative stereo) [AP1903, 2-Piperidinecarboxylic acid, 1-[(2S)-1-oxo-2-(3,4,5-trimethoxyphenyl)butyl]-, 1,2-ethanediylbis[imino(2-oxo-2,1-ethanediyl)oxy-3,1-phenylene[(1R)-3-(3,4-dimethoxyphenyl)propylidene]]ester, [2S-[1(R*),2R*[S*[S*[1(R*),2R*]]]]]-(9Cl)], the “concentration at which apoptosis is induced” value [1] was no more than 0.1 nM, the “amount needed for effective signaling, equated to dose” value (cells [2]) was 0.016 to 1.6 µg/kg and the “amount needed for effective signaling, equated to mass concentration” value (cells [2]) was 16 to 160 µg/L. For the same molecule, the “amount needed in vitro for effective signaling of cells” value (cells [3]) was 10 to 100 nM, the “plasma level as % of maximal concentration” value (“plasma level as %” for short) ([4]; 0.5 hours post-dose) was “approximately 18%” and the “plasma level as %” value ([4]; 2 hours post-dose) was roughly 7%. For the same molecule, the “plasma level as %” value ([4]; 10 hours post-dose) was roughly 1%, the well-tolerated doses ([4]; Phase I study, IV) was “up to 1 mg/kg” and the “mean Cmax” value ([4]; single doses infused IV over 2 hours, 0.01-1.0 mg/kg dose range, plasma) was 10 to 1275 ng/mL.
